From US6586191B2 (priority 1996, dated 2003)
Peptide text beside a SMILES is read from it.

Tests used:
rat GALR2 receptor [1] = biological target: T1, rat GALR2 receptor (Rattus norvegicus, UniProt O08726); assay: intracellular calcium mobilization (Fura-2) in cells transfected with rat GALR2; type: cell-based; design: expressed in transfected cells
T1 sequence (O08726 1-372): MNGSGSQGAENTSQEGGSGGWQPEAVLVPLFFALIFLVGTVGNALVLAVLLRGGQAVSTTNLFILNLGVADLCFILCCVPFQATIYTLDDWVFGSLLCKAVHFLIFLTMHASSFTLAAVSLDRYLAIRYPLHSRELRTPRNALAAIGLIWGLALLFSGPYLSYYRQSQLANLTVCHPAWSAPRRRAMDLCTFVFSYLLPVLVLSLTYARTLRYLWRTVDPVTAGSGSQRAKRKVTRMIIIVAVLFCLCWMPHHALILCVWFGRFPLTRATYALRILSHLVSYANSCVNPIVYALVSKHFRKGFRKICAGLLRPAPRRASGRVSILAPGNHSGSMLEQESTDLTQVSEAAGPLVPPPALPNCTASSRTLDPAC
Procedure: The intracellular free calcium concentration may be measured by microspectroflourometry using the fluorescent indicator dye Fura-2/AM (Bush et al. 1991). Stably transfected cells are seeded onto a 35 mm culture dish containing a glass coverslip insert. Cells are washed with HBS and loaded with 100 μL of Fura-2/AM (10 μM) for 20 to 40 min. After washing with HBS to remove the Fura-2/AM solution, cells are equilibrated in HBS for 10 to 20 min. Cells are then visualized under the 40× objective of a Leitz Fluovert FS microscope and fluorescence emission is determined at 510 nm with excitation wavelengths alternating between […]. Raw fluorescence data are converted to calcium concentrations using standard calcium concentration curves and software analysis techniques.

rat GALR1 receptor [2] = biological target: T2, rat GALR1 receptor (Rattus norvegicus, UniProt Q62805); type: cell-based; design: expressed in transfected cells; host or cells: COS-7 (transient); settings: for fold less potent than porcine galanin in the rat GalR1 cAMP assay: LM(tk-) rat GALR1
T2 sequence (Q62805 1-346): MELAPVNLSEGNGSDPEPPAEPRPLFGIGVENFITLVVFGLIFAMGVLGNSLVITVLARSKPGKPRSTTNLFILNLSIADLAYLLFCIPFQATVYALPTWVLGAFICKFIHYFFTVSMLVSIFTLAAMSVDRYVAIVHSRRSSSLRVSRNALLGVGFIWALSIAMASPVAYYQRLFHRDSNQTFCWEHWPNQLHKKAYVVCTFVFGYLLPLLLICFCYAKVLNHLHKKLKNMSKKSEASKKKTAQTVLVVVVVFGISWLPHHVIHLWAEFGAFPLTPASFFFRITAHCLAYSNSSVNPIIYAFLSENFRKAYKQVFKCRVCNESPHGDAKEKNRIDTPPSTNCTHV

rat GALR2 receptor [3] = biological target: T1, rat GALR2 receptor; assay: arachidonic acid release in CHO cells stably transfected with rat GALR2 (C-rGalR2-79); type: cell-based; design: expressed in transfected cells
Procedure: The labeled cells were washed three times with 200 ul HAM's F-12. The wells were then filled with medium (200 uL) and the assay was initiated with the addition of peptides or buffer (22 uL). Cells were incubated for 30 min at 37° C., 5% CO2. Supernatants were transferred to a microtiter plate and evaporated to dryness at 75° C. in a vacuum oven. Samples were then dissolved and resuspended in 25 uL distilled water. Scintillant (300 uL) was added to each well and samples were counted for ^3H in a Trilux plate reader. Data were analyzed using nonlinear regression and statistical techniques available in the GraphPAD Prism package (San Diego, Calif.).

rat GALR2 receptor [4] = biological target: T1, rat GALR2 receptor; assay: MAP kinase phosphorylation (western blot) in CHO cells expressing rat GALR2; type: cell-based; design: expressed in transfected cells; settings: CHO rat GALR2, 10 minutes, human galanin (10 μM)
Procedure: (§1) CHO cells expressing either the rat GALR2 receptor or the human GALR2 receptor were plated at ˜50% confluence into well-plates and grown in culture with fetal bovine serum reduced to 0.5% for 2 days. Fresh medium was exchanged for old and then aspirated after 2 hrs. […] Cells were washed with phosphate buffered saline and lysed in 100 uL Laemmli sample buffer (Bio-Rad) containing 5% β-mercaptoethanol. Cell lysate was scraped off the plate, transferred to a microfuge tube on ice, and sonicated for 10-15 seconds. Samples were heated at 100° C. for 3-5 minutes. Insoluble material was collected by centrifugation at 10,000×g for 5 min. Supernatant (20 μL/lane) was loaded onto a 4-20% polyacrylamide Bio-Rad Ready-Gel (10×10 cm) together with a phospho-MAP kinase protein standard (New England BioLabs) and molecular weight markers. […] The phospho-MAP kinase complex was detected by chemiluminescence using Lumiglow reagent (New England BioLabs) and Kodak X-Omat film, with exposure times ranging from 10 to 120 seconds.
(§2) Another functional assay relies on the fact that MAP kinase phosphorylation precedes the activation of phospholipase A2. We tested whether galanin-dependent activation of GALR2 could be monitored by changes in MAP kinase phosphorylation. […]

human GALR2 receptor = biological target: T3, human GALR2 receptor (Homo sapiens, UniProt O43603); assay: MAP kinase phosphorylation (western blot) in CHO cells expressing human GALR2; type: cell-based; settings: CHO human GALR2, 10 minutes, human galanin (10 μM)
T3 construct: To obtain a full-length hGALR2 clone, superpools of a human heart cDNA library were screened by PCR; expressed in transfected cells
T3 sequence (O43603 1-387): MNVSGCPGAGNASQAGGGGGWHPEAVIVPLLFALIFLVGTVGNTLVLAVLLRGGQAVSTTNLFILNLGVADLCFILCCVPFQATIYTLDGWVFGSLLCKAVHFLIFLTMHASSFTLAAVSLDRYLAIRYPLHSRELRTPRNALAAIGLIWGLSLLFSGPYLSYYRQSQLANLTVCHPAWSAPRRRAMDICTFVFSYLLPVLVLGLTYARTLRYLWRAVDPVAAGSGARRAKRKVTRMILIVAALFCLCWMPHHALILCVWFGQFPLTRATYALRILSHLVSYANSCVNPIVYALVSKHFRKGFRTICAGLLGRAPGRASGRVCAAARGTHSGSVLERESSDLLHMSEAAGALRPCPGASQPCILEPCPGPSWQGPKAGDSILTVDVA
Procedure: as §1, §2

[5] = tested on: galanin binding sites in brain, spinal cord, pancreatic islets and cell lines, gastrointestinal smooth muscle; settings: read-out: affinity of high-affinity galanin binding sites; several mammalian species and tissues; cited from earlier work
[6] = tested on: [125I]galanin binding sites in rat brain; assay: galanin receptor autoradiography, displacement of [125I]galanin from rat brain tissue sections; settings: 5 μM
Procedure: Male Sprague-Dawley rats (Charles River, Wilmington, Mass.) were euthanized using CO2, decapitated, and their brains immediately removed and frozen on dry ice. Tissue sections were cut at 20 μm using a cryostat and thaw mounted onto gelatin coated slides. Tissues were preincubated in two 10 minute changes of 50 mM Tris-HCl buffer pH 7.4, containing 5 mM MgSO4 and 2 mM EGTA (Sigma). […] After incubation, tissues were dipped twice in ice-cold Tris-HCl buffer (40° C.), followed by a 5 minute wash in ice-cold Tris-HCl buffer (4° C.), then dipped twice in ice-cold deionized water to remove the salts. Sections were placed in X-ray cassettes and apposed to Dupont Cronex MRF 34 Film for 5 days. Films were developed using a Kodak M35A Processor.

rat GALR2 receptor [7] = biological target: T1, rat GALR2 receptor; assay: voltage clamp currents in Xenopus oocytes injected with rGalR2 mRNA; type: cell-based; design: expressed in transfected cells; settings: 100-1000 nM, oocytes injected with 5-50 pg rGalR2 mRNA, holding potential -80 mV
rat GALR2 receptor [8] = biological target: T1, rat GALR2 receptor; assay: GTPgamma35S binding to membranes of cells transfected with rat GalR2; type: biochemical; design: expressed in transfected cells; settings: 1 μM peptide, n=3
Procedure: Membranes from cells transfected with the rat GalR2 receptor were suspended in assay buffer (50 mM Tris, 100 mM NaCl, 5 mM MgCl2, pH 7.4) supplemented with 0.1% BSA, 0.1% bacitracin and 10 μM GDP. Membranes were incubated on ice for 20 minutes, transferred to a 96-well Millipore microtiter GF/C filter plate and mixed with GTPγ^35S (250,000 cpm/sample, specific activity ˜1000 Ci/mmol) plus or minus GTPγS (final concentration=100 μM). Final membrane protein concentration=90 μg/mL. […] Samples collected in the filter plate were treated with scintillant and counted for ^35S in a Trilux (Wallac) liquid scintillation counter.
The signal transduction pathway outlined for rat GalR2 allows for the development of functional assays other than inositol phosphate, calcium, and arachidonic acid determination. One such assay relies on the fact that binding of GTP to a G-protein precedes agonist-dependent activation of phospholipase C. we examined whether galanin-dependent activation of GALR2 could be monitored by the binding of GTPγ^35S to membranes from stably transfected cells.

rat GALR1 receptor [9] = biological target: T2, rat GALR1 receptor; assay: biochemical

Molecule: rat galanin
- increase of intracellular free [Ca+2] (Δ[Ca+2]) (rat GALR2 receptor [1]; 1 μM peptide, C-rGALR2-79, n=9, not in untransfected cells): 310 ± 70 nM

Molecule: CC[C@H](C)[C@H](NC(=O)[C@H](C)NC(=O)[C@H](Cc1c[nH]cn1)NC(=O)[C@@H]1CCCN1C(=O)CNC(=O)[C@H](CC(C)C)NC(=O)[C@H](CC(C)C)NC(=O)[C@H](Cc1ccc(O)cc1)NC(=O)CNC(=O)[C@H](C)NC(=O)[C@H](CO)NC(=O)[C@H](CC(N)=O)NC(=O)[C@H](CC(C)C)NC(=O)[C@@H](NC(=O)[C@H](Cc1c[nH]c2ccccc12)NC(=O)CNC(=O)[C@H](CCCNC(=N)N)NC(=O)[C@H](CCCCN)NC(=O)[C@H](CCC(=O)O)NC(=O)[C@H](CCCCN)NC(=O)[C@@H](NC(=O)[C@@H]1CCCN1C(=O)[C@H](CO)NC(=O)CNC(=O)[C@@H](N)CC(C)C)C(C)C)[C@@H](C)O)C(=O)N[C@@H](CC(=O)O)C(=O)N[C@@H](CC(N)=O)C(=O)N[C@@H](Cc1c[nH]cn1)C(=O)N[C@@H](CCCNC(=N)N)C(=O)N[C@@H](CO)C(=O)N[C@@H](Cc1ccccc1)C(=O)N[C@@H](Cc1c[nH]cn1)C(=O)N[C@@H](CC(=O)O)C(=O)N[C@@H](CCCCN)C(=O)N[C@@H](Cc1ccc(O)cc1)C(=O)NCC(=O)N[C@@H](CC(C)C)C(=O)N[C@@H](C)C(N)=O [porcine galanin (−9) to (+29)]
- fold less potent than porcine galanin in the rat GalR1 cAMP assay (rat GALR1 receptor [2]): 400 fold
- fold less potent than porcine galanin in the rat GalR2 arachidonic acid assay (rat GALR2 receptor [3]): 2 fold

Molecule: Human galanin
- phosphorylated MAP kinase levels (rat GALR2 receptor [4]): increase
- phosphorylated MAP kinase levels (human GALR2 receptor): increase

Molecule: CC[C@H](C)[C@H](NC(=O)[C@H](C)NC(=O)[C@H](Cc1c[nH]cn1)NC(=O)[C@@H]1CCCN1C(=O)CNC(=O)[C@H](CC(C)C)NC(=O)[C@H](CC(C)C)NC(=O)[C@H](Cc1ccc(O)cc1)NC(=O)CNC(=O)[C@H](C)NC(=O)[C@H](CO)NC(=O)[C@H](CC(N)=O)NC(=O)[C@H](CC(C)C)NC(=O)[C@@H](NC(=O)[C@H](Cc1c[nH]c2ccccc12)NC(=O)CNC(=O)[C@H](CCCNC(=N)N)NC(=O)[C@H](CCCCN)NC(=O)[C@H](CCC(=O)O)NC(=O)[C@H](CCCCN)NC(=O)[C@@H](NC(=O)[C@@H]1CCCN1C(=O)[C@@H](N)CO)C(C)C)[C@@H](C)O)C(=O)N[C@@H](CC(=O)O)C(=O)N[C@@H](CC(N)=O)C(=O)N[C@@H](Cc1c[nH]cn1)C(=O)N[C@@H](CCCNC(=N)N)C(=O)N[C@@H](CO)C(=O)N[C@@H](Cc1ccccc1)C(=O)N[C@@H](Cc1c[nH]cn1)C(=O)N[C@@H](CC(=O)O)C(=O)N[C@@H](CCCCN)C(=O)N[C@@H](Cc1ccc(O)cc1)C(=O)NCC(=O)N[C@@H](CC(C)C)C(=O)N[C@@H](C)C(N)=O [porcine galanin (−7) to (+29)]
- fold less potent than porcine galanin in the rat GalR1 cAMP assay (rat GALR1 receptor [2]): 350 fold
- fold less potent than porcine galanin in the rat GalR2 arachidonic acid assay (rat GALR2 receptor [3]): 3 fold

Molecule: [^125I]porcine galanin
- Kd [5]: 0.5 to 1 nM

Molecule: porcine galanin (1-29)
- displacement of [125I]galanin binding from rat brain tissue sections [6]: complete displacement
- activation of rapid inward currents (oocytes responding) (rat GALR2 receptor [7]): 36 of 46
- binding of GTPγ35S in presence of peptide (rat GALR2 receptor [8]; C-rGALR2-79 membranes, without peptide 8,014±113 cpm): 10,292±104 cpm
- binding of GTPγ35S in presence of peptide (rat GALR2 receptor [8]; L-rGalR2I-4 membranes (intronless), without peptide 27,545±504 cpm): 29,011±526 cpm
- effect on intracellular calcium levels (rat GALR2 receptor [1]; COS-7 cells transfected with rat GALR2 cDNA): no effect

Molecule: CC(C)C[C@H](NC(=O)[C@H](CC(C)C)NC(=O)[C@@H](Cc1c[nH]c2ccccc12)NC(=O)[C@H](Cc1ccccc1)NC(=O)[C@@H](Cc1c[nH]c2ccccc12)NC(=O)[C@H](CCC(N)=O)NC(=O)[C@H](CCC(N)=O)NC(=O)[C@@H]1CCCN1C(=O)[C@H](CCCCN)NC(=O)[C@@H]1CCCN1C(=O)[C@@H](CCCNC(=N)N)NC(=O)[C@@H]1CCCN1C(=O)CNC(=O)[C@H](CC(C)C)NC(=O)[C@H](CC(C)C)NC(=O)[C@H](Cc1ccc(O)cc1)NC(=O)CNC(=O)[C@H](C)NC(=O)[C@H](CO)NC(=O)[C@H](CC(N)=O)NC(=O)[C@H](CC(C)C)NC(=O)[C@@H](NC(=O)[C@H](Cc1c[nH]c2ccccc12)NC(=O)CN)[C@@H](C)O)C(N)=O [Peptide C7, C7] (HELM PEPTIDE1{G.W.T.L.N.S.A.G.Y.L.L.G.P.[dR].P.K.P.Q.Q.[dW].F.[dW].L.L.[am]}$$$$V2.0; N-terminus and C-terminus assumed)
- Ki (rat GALR1 receptor [9]): 16.2 nM
- EC50 (rat GALR1 receptor [2]; read-out: LM(tk-) Rat GALR1 cAMP assay EC50): 0.52 nM
